# Measurements: patent publication US11452731B2, “Method of treating and preventing loss of cognition” (ENDORECHERCHE, INC., priority 2009, dated 2022)
# Assay: Clinical trial ERC-205: DHEA 50 mg daily versus placebo on hot flushes in postmenopausal women (Example 10)
# Format: in vivo
# Conditions: 50 mg
# Method: Postmenopausal women experiencing moderate or severe hot flushes per week (as determined by a two week diary) were randomized to receive a daily dose of either placebo or 50 mg DHEA. Fifty evaluable participants (25 patients per arm) were treated for four months with a daily assessment of hot flushes recorded in a diary completed by each participant.
# Postmenopausal women aged 40 to 70 years with moderate or severe hot flushes per week, as confirmed by a two-week screening hot flush diary were enrolled after signing informed consent. The protocol was approved by the Institutional Review Board (IRB) of Le Centre Hospitalier de l'Université Laval and by Health Canada.
# The primary endpoint was the change from Baseline in the weekly frequency of moderate to severe hot flushes at Week 16, after four months of treatment. The objectives also included the change from Baseline in the weekly frequency of all hot flushes and the change from Baseline in the weekly weighted severity score.
# The response endpoint is the patient's paper diary which was filled in daily to specify the number and type of hot flushes as follows:
# The hot flush diary began as a Screening diary for two weeks prior to randomization whereby patients had to complete the diary daily, recording the number and severity of hot flushes. The patients had to record an average of 50 or more moderate or severe hot flushes per week over the two-week period to be eligible (i.e., at least 100 hot flushes documented on the two week Screening diary).
# Once randomized, the patient completed eight, two-week hot flush diaries upon beginning study medication. The diaries had to be filled out on a daily basis. The first diary was completed over the first two weeks and be returned on the two week visit. The second two-week diary was completed over the next two weeks of the first four week treatment period and was returned at the four week visit. At 4, 8, 12 and 16 week visits, two two-week diaries for hot flushes were collected.
# [1] = strata 50 to 70 hot flushes per week at screening, Week 16
# [2] = strata ≥71 hot flushes per week at screening, Screening (mean of 2 w), baseline
# [3] = strata ≥71 hot flushes per week at screening, Week 1
# [4] = strata ≥71 hot flushes per week at screening, Week 2
# [5] = strata ≥71 hot flushes per week at screening, Week 3
# [6] = strata ≥71 hot flushes per week at screening, Week 4
# [7] = strata ≥71 hot flushes per week at screening, Week 5
# [8] = strata ≥71 hot flushes per week at screening, Week 6
# [9] = strata ≥71 hot flushes per week at screening, Week 7
# [10] = strata ≥71 hot flushes per week at screening, Week 8
# [11] = strata ≥71 hot flushes per week at screening, Week 9
# [12] = strata ≥71 hot flushes per week at screening, Week 10
# [13] = strata ≥71 hot flushes per week at screening, Week 11
# [14] = strata ≥71 hot flushes per week at screening, Week 12
# [15] = strata ≥71 hot flushes per week at screening, Week 13
structure (smiles),measurement,setting,value
"C[C@]12CC[C@H](O)CC1=CC[C@@H]1[C@@H]2CC[C@]2(C)C(=O)CC[C@@H]12 [DHEA, dehydroepiandrosterone]",WEIGHTED SEVERITY SCORE OF HOT FLUSHES PER WEEK (MEAN),"strata 50 to 70 hot flushes per week at screening, Week 15",83.7
same,NUMBER OF ALL HOT FLUSHES PER WEEK (MEAN),[1],35.7
same,NUMBER OF MODERATE TO SEVERE HOT FLUSHES PER WEEK (MEAN),[1],32.7
same,WEIGHTED SEVERITY SCORE OF HOT FLUSHES PER WEEK (MEAN),[1],81.6
same,NUMBER OF ALL HOT FLUSHES PER WEEK (MEAN),[2],91.0
same,NUMBER OF MODERATE TO SEVERE HOT FLUSHES PER WEEK (MEAN),[2],88.5
same,WEIGHTED SEVERITY SCORE OF HOT FLUSHES PER WEEK (MEAN),[2],241.6
same,NUMBER OF ALL HOT FLUSHES PER WEEK (MEAN),[3],68.6
same,NUMBER OF MODERATE TO SEVERE HOT FLUSHES PER WEEK (MEAN),[3],64.1
same,WEIGHTED SEVERITY SCORE OF HOT FLUSHES PER WEEK (MEAN),[3],175.2
same,NUMBER OF ALL HOT FLUSHES PER WEEK (MEAN),[4],57.9
same,NUMBER OF MODERATE TO SEVERE HOT FLUSHES PER WEEK (MEAN),[4],53.5
same,WEIGHTED SEVERITY SCORE OF HOT FLUSHES PER WEEK (MEAN),[4],150.8
same,NUMBER OF ALL HOT FLUSHES PER WEEK (MEAN),[5],57.5
same,NUMBER OF MODERATE TO SEVERE HOT FLUSHES PER WEEK (MEAN),[5],52.5
same,WEIGHTED SEVERITY SCORE OF HOT FLUSHES PER WEEK (MEAN),[5],149.8
same,NUMBER OF ALL HOT FLUSHES PER WEEK (MEAN),[6],62.7
same,NUMBER OF MODERATE TO SEVERE HOT FLUSHES PER WEEK (MEAN),[6],57.8
same,WEIGHTED SEVERITY SCORE OF HOT FLUSHES PER WEEK (MEAN),[6],166.5
same,NUMBER OF ALL HOT FLUSHES PER WEEK (MEAN),[7],60.0
same,NUMBER OF MODERATE TO SEVERE HOT FLUSHES PER WEEK (MEAN),[7],53.2
same,WEIGHTED SEVERITY SCORE OF HOT FLUSHES PER WEEK (MEAN),[7],154.1
same,NUMBER OF ALL HOT FLUSHES PER WEEK (MEAN),[8],53.9
same,NUMBER OF MODERATE TO SEVERE HOT FLUSHES PER WEEK (MEAN),[8],47.6
same,WEIGHTED SEVERITY SCORE OF HOT FLUSHES PER WEEK (MEAN),[8],138.7
same,NUMBER OF ALL HOT FLUSHES PER WEEK (MEAN),[9],52.2
same,NUMBER OF MODERATE TO SEVERE HOT FLUSHES PER WEEK (MEAN),[9],46.7
same,WEIGHTED SEVERITY SCORE OF HOT FLUSHES PER WEEK (MEAN),[9],137.2
same,NUMBER OF ALL HOT FLUSHES PER WEEK (MEAN),[10],48.9
same,NUMBER OF MODERATE TO SEVERE HOT FLUSHES PER WEEK (MEAN),[10],43.3
same,WEIGHTED SEVERITY SCORE OF HOT FLUSHES PER WEEK (MEAN),[10],129.0
same,NUMBER OF ALL HOT FLUSHES PER WEEK (MEAN),[11],47.0
same,NUMBER OF MODERATE TO SEVERE HOT FLUSHES PER WEEK (MEAN),[11],41.1
same,WEIGHTED SEVERITY SCORE OF HOT FLUSHES PER WEEK (MEAN),[11],121.8
same,NUMBER OF ALL HOT FLUSHES PER WEEK (MEAN),[12],46.9
same,NUMBER OF MODERATE TO SEVERE HOT FLUSHES PER WEEK (MEAN),[12],41.6
same,WEIGHTED SEVERITY SCORE OF HOT FLUSHES PER WEEK (MEAN),[12],121.6
same,NUMBER OF ALL HOT FLUSHES PER WEEK (MEAN),[13],42.8
same,NUMBER OF MODERATE TO SEVERE HOT FLUSHES PER WEEK (MEAN),[13],36.4
same,WEIGHTED SEVERITY SCORE OF HOT FLUSHES PER WEEK (MEAN),[13],110.2
same,NUMBER OF ALL HOT FLUSHES PER WEEK (MEAN),[14],39.3
same,NUMBER OF MODERATE TO SEVERE HOT FLUSHES PER WEEK (MEAN),[14],33.1
same,WEIGHTED SEVERITY SCORE OF HOT FLUSHES PER WEEK (MEAN),[14],98.7
same,NUMBER OF ALL HOT FLUSHES PER WEEK (MEAN),[15],39.3
same,NUMBER OF MODERATE TO SEVERE HOT FLUSHES PER WEEK (MEAN),[15],33.9
same,WEIGHTED SEVERITY SCORE OF HOT FLUSHES PER WEEK (MEAN),[15],102.8
same,NUMBER OF ALL HOT FLUSHES PER WEEK (MEAN),"strata ≥71 hot flushes per week at screening, Week 14",37.3
